In patent publication US11952349B2, “Anti-cancer nuclear hormone receptor-targeting compounds” (Nuvation Bio Inc., priority 2019, dated 2024):

Target: T1, AR in LNCaP cytosol (Homo sapiens, UniProt P10275, T878A)
T1 construct: AR in LNCaP cytosol was used; endogenous in cells; host or cells: LNCaP cells (cytosol)
T1 sequence (P10275 1-920 T878A): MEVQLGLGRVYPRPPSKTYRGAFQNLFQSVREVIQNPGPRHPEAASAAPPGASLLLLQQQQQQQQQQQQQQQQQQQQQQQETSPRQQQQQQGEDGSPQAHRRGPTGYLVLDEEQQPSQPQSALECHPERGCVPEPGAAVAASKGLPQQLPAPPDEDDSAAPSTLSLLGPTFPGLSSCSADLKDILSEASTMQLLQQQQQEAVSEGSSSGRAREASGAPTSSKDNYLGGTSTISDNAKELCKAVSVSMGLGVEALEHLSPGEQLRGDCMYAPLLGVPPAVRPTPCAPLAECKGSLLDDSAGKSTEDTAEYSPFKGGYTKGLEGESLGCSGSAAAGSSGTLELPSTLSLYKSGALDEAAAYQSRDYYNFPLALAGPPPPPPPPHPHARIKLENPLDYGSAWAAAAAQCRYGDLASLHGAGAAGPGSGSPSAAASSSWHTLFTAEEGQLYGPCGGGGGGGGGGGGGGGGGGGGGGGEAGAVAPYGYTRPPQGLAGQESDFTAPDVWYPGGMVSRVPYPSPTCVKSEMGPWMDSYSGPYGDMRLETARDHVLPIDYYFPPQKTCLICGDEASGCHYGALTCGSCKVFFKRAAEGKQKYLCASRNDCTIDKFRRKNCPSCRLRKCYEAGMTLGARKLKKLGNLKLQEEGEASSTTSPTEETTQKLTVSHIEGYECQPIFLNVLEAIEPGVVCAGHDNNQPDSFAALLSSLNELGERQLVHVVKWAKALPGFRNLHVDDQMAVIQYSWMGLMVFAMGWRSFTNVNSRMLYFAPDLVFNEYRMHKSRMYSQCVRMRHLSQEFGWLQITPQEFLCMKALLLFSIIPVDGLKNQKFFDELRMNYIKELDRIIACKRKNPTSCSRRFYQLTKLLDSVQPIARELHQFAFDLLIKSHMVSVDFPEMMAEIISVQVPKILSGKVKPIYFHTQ
Test: AR binding assay, 3H-methyltrienolone (Biological Example 1)
Details: Table 6, in vitro NHR binding; Ki=IC50/(1+[L]/Kd), [L] 1 nM, Kd 0.332 nM
Description: The following methods are for evaluating the in vitro biology properties of the test articles. • a. RBC HotSpot Poly(ADP-ribose) Polymerases 1 (PARP1) and Poly(ADP-ribose) Polymerases 2 (PARP2) Assays: The assay was conducted at Reaction Biology Corporation (RBC; Malvern, PA). The assay principle is radioisotope-based filter binding assay where incorporation of radioisotope-labeled NAD^+ into the substrate captured on filter is detected after washout free NAD^+. Data were analyzed using Excel and GraphPad Prism software for IC50 curve fits. Each assay was conducted with PJ34 as a positive control. […] After incubation for 2 hrs at room temperature, the reaction mixture was filtered and washed with 0.75% phosphoric acid for radioactivity detection. • ii. […] After incubation for 2 hrs at room temperature, the reaction mixture was filtered and washed with 0.75% phosphoric acid for radioactivity detection. • b. […] IC50 s were determined using 8 concentrations/compound. […] Radioactivity is counted using a TriCarb 2910 TR scintillation counter (PerkinElmer). […] The Ki values were further calculated using the equation below where [L] is the radioligand concentration (1 nM) used in this study. […]

Cn1ncnc1C1c2n[nH]c(=O)c3cc(F)cc(c23)N[C@@H]1c1ccc(NC(=O)CCCCCO[C@@H]2CC[C@H]3[C@@H]4CC[C@H]5CCCC[C@]5(C)[C@H]4CC[C@]23C)cc1 (stereo partly drawn) [Compound 1128, 6-((5R,8R,9S,10S,13S,14S,17R)-10,13-dimethylhexadecahydro-1H-cyclopenta[a]phenanthren-17-yloxy)-N-(4-((8S)-5-fluoro-9-(1-methyl-1H-1,2,4-triazol-5-yl)-3-oxo-3,7,8,9-tetrahydro-2H-pyrido[4,3,2-de]phthalazin-8-yl)phenyl)hexanamide]
Ki: > 7.47 µM
